{"source": "the NIST ThermoML archive (doi:10.1021/je400255c)", "key": {"[1]": {"conditions": "DTA"}, "[2]": {"test": "Molar enthalpy of transition or fusion", "conditions": "DSC"}}, "note": "± gives the expanded uncertainty stated by the source."}
{"smiles": "O=C[O-].[K+]", "note": "[potassium formate]", "values": [{"measurement": "Normal melting temperature", "setting": "[1]; Crystal 1", "result": "168.70 ± 1.5", "unit": "°C"}, {"measurement": "Triple point temperature", "setting": "[1]; Crystal 2", "result": "412.65 ± 1", "unit": "K"}, {"measurement": "Molar enthalpy of transition or fusion", "setting": "[2]; Crystal 1", "result": "11.6 ± 0.2", "unit": "kJ/mol"}, {"measurement": "Molar enthalpy of transition or fusion", "setting": "[2]; Crystal 2", "result": "0.64 ± 0.01", "unit": "kJ/mol"}]}
